Molecules are shown by their SMILES.

In the case of `CC(CO)CO`, the melting point was -91 °C.

`Cc1ccccc1CS(=O)(=O)Cl` gave a melting point of 52 to 53 °C.

`CCCCC(C(=O)O)C(=O)O`: the melting point came out at 104 °C.

Regarding `Cc1cc(O)c(C(=O)CC(=O)c2ccccc2)cc1Cl`, the melting point is 120 to 123 °C.

As for `COc1ccccc1C1Nn2c(nnc2-c2ccccc2)S1` (centres undefined), the melting point amounted to 196 °C.

As to `Cc1ccccc1NC(=S)Nc1ccccc1C`, the melting point came to 158 °C.

`CC(=O)C(=NNc1ccccc1)c1cc(C(=NNc2ccccc2)C(C)=O)c([N+](=O)[O-])cc1[N+](=O)[O-]`: the melting point is 215 °C.

`O=C1OC(c2ccccc2)=NC1=Cc1cccs1`: the melting point came to 167 °C.

Regarding `Cc1cc(C)n(N=Cc2ccc([N+](=O)[O-])cc2)c(=O)c1C#N`, the melting point was in the range of 260 to 261 °C.

For `COC(=O)c1ccccc1S(=O)(=O)NC(=O)Nc1nc(C)nc(OC)n1`, the melting point is 162 °C.

In the case of `FC(F)(F)c1cc(Cl)c2c(Cl)cc(Cl)cc2n1`, the melting point lay within 111 to 114 °C.

With `N#Cc1c(NC(=O)c2ccc(Cl)cc2Cl)sc2c1CCCC2`, the melting point is 201 to 202 °C.

In turn, `Cc1cc2ncc(S(=O)(=O)C(C)(C)C)c(N)n2n1` had a melting point of 206 to 208 °C.

`CN(C)CCCN` gave a melting point of -60 °C.

Regarding `NC(=O)c1ccc(Cl)c([N+](=O)[O-])c1`, the melting point is 152 °C.

`CC(=O)OCC(=O)C1(O)CCC2(O)C3CCC4=CC(=O)CCC4(C)C3CCC12C` (centres undefined) registered a melting point of 236 °C.

Compound `O=[N+]([O-])c1cc([N+](=O)[O-])c(/C=C/c2ccc3c(c2)OCO3)cc1/C=C\c1ccc2c(c1)OCO2` gave a melting point of 215 °C.

`CN(C)CC(=O)N1c2ccccc2Sc2ccccc21` yielded a melting point of 144 °C.

The compound `BrC(Br)c1ccccc1C(Br)Br` showed a melting point of 116 °C.

`ClC1=C(Cl)C2(Cl)C(CBr)CC1(Cl)C2(Cl)Cl` (centres undefined) gave a melting point of 77 °C.

In turn, `O=C(Cc1ccccc1)c1cc2c(cc1Br)OCCO2` showed a melting point of 142 to 144 °C.

The compound `Nc1ccc(-c2ccc3nn(-c4ccccc4)nc3c2)cc1` displayed a melting point of 224 to 225 °C.

Compound `Cc1c2ccccc2cc2ccc3ccccc3c12` gave a melting point of 138 °C.

As to `CCC1(C)C=C/C(=N\NS(=O)(=O)c2ccc(C)cc2)CC1` (centres undefined), the melting point was 159 to 169 °C.

The compound `COc1ccc(C(O)C(O)c2ccccc2)cc1` (centres undefined) registered a melting point of 129 °C.

In the case of `COc1ccc(Br)c(C(=O)CC#N)c1`, the melting point is 92 to 93 °C.

`Oc1c(Cl)cc(F)cc1Cl` had a melting point of 49 to 52 °C.

Regarding `O=C(O)C[C@H](NC(=O)OCC1c2ccccc2-c2ccccc21)c1ccccc1`, the melting point was found to be 187 °C.

For the compound `CC12CCC3C(C(=O)CC4CC(O)CCC43C)C1CCC2O` (centres undefined), the melting point is 198 °C.

For `N#Cc1ccc(N)c(F)c1`, the melting point stood at 89 °C.

In turn, `OC(c1ccccc1)c1ccc(C(F)(F)F)cc1` (centres undefined) gave a melting point of 60 °C.

`CC(=O)NC1C(Oc2ccc([N+](=O)[O-])cc2)OC(CO)C(O)C1O` (centres undefined): the melting point is 264 °C.

The compound `O=C(CCl)Nc1ccccc1Cl` gave a melting point of 70 to 73 °C.

Compound `CN(C)c1ccc(C=CC#N)cc1` showed a melting point of 165 to 168 °C.

`Cc1ccccc1C(=O)Nc1cccc(OC(C)C)c1` yielded a melting point of 92.5 °C.

With `O=C(Oc1ccccc1C(=O)O)c1ccccc1O`, the melting point came out at 147 °C.

`COc1c2c(cc3oc(=O)ccc13)OC(C)(C)C=C2` had a melting point of 133 °C.

`CSCCC=O` returned a melting point of -58 °C.

Take `O=C1OC(c2ccccc2)=NC1=Cc1ccc(Br)cc1`: the melting point lay within 192 to 193 °C.

With `FC12CC3CC(CC(C3)C1)C2`, the melting point worked out at 225 °C.

Turning to `CN(C)CCN`, the melting point was -70 °C.

Take `CNc1cccc2ccccc12`: the melting point amounted to 174 °C.

In the case of `CCOC(=O)C1=C(N)Oc2ccc(Br)cc2C1C(C#N)C(=O)OCC` (centres undefined), the melting point fell in the range of 105 to 108 °C.

`Cn1ccc2c(C#N)cccc21` yielded a melting point of 41 to 43 °C.

Regarding `N#C/C(=C\c1c(Cl)cccc1Cl)c1nc(-c2ccccc2)cs1`, the melting point was 96 °C.

On to `Cn1c(C=O)cc2sccc21`, for which the melting point is 63 to 64 °C.

`OC1(c2ccccc2)Cc2ccccc21` (centres undefined) returned a melting point of 68 °C.

`COC(=O)c1c(C(F)F)nc(C(F)(F)F)c(C2=NCCS2)c1CC(C)C` displayed a melting point of 78 °C.

For the compound `CC(=O)Oc1cc(C)ccc1C1(C)CC(C)(C)c2ccc(C)cc2O1` (centres undefined), the melting point came to 102 °C.

The compound `OCc1cc(C(F)(F)F)cc(C(F)(F)F)c1` returned a melting point of 54 °C.

Consider `S=c1ssc(S)c1-c1ccccc1`, for which the melting point fell in the range of 153 to 155 °C.

Compound `COc1ccccc1CCC(=O)O` showed a melting point of 87 °C.

`CCCCCCCCCCC=CCCCCCCCC(=O)O` returned a melting point of 23 °C.

Compound `Ic1ccc2c(c1)Oc1ccccc1O2` yielded a melting point of 95 °C.

As to `CC1=Nc2ccc3ccccc3c2C1(C)C`, the melting point amounted to 117 °C.

Consider `CC(C)(C)n1nc(-c2ccc(Cl)cc2)c(C#N)c1N`, for which the melting point is 154 to 155 °C.

Turning to `O=C(O)c1c(O)cccc1F`, the melting point was found to be 160 °C.

On to `N#Cc1ccncc1Cl`, for which the melting point was determined as 72.5 °C.

In turn, `O=S(=O)(O)CCCNC1CCCCC1` came in with a melting point of 324 °C.

Compound `c1ccc(Cn2cccc2)cc1` displayed a melting point of 15 °C.

On to `Cc1nc2scc(-c3ccccc3)c2c(=O)n1NC(=O)c1cccc(C(F)(F)F)c1`, for which the melting point lay in the range of 134 to 138 °C.

`CCCN(CCCl)c1c([N+](=O)[O-])cc(C(F)(F)F)cc1[N+](=O)[O-]` registered a melting point of 42 °C.

`O=C(OC(=O)c1ccc(C(F)(F)F)cc1)c1ccc(C(F)(F)F)cc1` returned a melting point of 130 °C.

Regarding `C=CCC1(C2C=CCCC2)C(=O)NC(=S)NC1=O` (centres undefined), the melting point was found to be 148 °C.

Compound `Nc1ccc(S(=O)(=O)Nc2ccnn2-c2ccccc2)cc1` displayed a melting point of 181 °C.

`Cc1c([N+](=O)[O-])cc(C(=O)N2CCCCCC2)cc1[N+](=O)[O-]` gave a melting point of 106 °C.

`COc1ccc(CC2c3cc(OC)c(OC)cc3CCN2C)cc1OC` (centres undefined) showed a melting point of 89 °C.

On to `O=C(Oc1ccccc1)c1cc2ccccc2cc1O`, for which the melting point lay within 128 to 133 °C.

In turn, `Clc1ccc(Cn2c(CN3CCCC3)nc3ccccc32)cc1` showed a melting point of 167 °C.

In turn, `N#CCc1cc(Cl)ccc1[N+](=O)[O-]` had a melting point of 87 °C.

Turning to `CC(C)c1cccc(O)c1`, the melting point was found to be 26 °C.

The compound `CCOC(=O)c1ccc(O)c(O)c1` came in with a melting point of 134 °C.

As for `CCS(=O)(=O)CCn1c([N+](=O)[O-])cnc1C`, the melting point came out at 128 °C.

Compound `Cc1oc(S(=O)(=O)N2CCCCC2)cc1C(=O)O` returned a melting point of 194 to 195 °C.

For the compound `Nc1nc(-c2ccc(Br)cc2)cs1`, the melting point was 184 °C.

`Cc1nc(-c2cccc(CBr)c2)no1` displayed a melting point of 71 to 72 °C.

`O=C1c2ccccc2-c2ccc3c4ccc5c6c(ccc(c7ccc1c2c73)c64)C(=O)c1ccccc1-5` gave a melting point of 492 °C.

The compound `Cc1cccc(C(=O)NCC(=O)O)c1` returned a melting point of 138 to 142 °C.

In turn, `Cc1cc(Cl)c(Cl)c(Cl)c1` came in with a melting point of 45.5 °C.

Consider `CCCCCCCCCCCCCCCCCCN=C=O`, for which the melting point was 20 °C.

In the case of `COc1ccc(CCN)cc1OC`, the melting point lay within 12 to 15 °C.

For the compound `CCC(=O)N(C)C`, the melting point was -45 °C.

In turn, `ClC1=C(Cl)C2(Cl)C3C4OC4(Cl)C(Cl)C3C1(Cl)C2(Cl)Cl` (centres undefined) returned a melting point of 144 °C.

Compound `Clc1cc(Cl)c2c(c1)oc1cc(Cl)cc(Cl)c12` returned a melting point of 207 °C.

In turn, `CC1(C)OC2CC3C4CCC5=CC(=O)C=CC5(C)C4(F)C(O)CC3(C)C2(C(=O)CO)O1` (centres undefined) displayed a melting point of 293 °C.

On to `COC(=O)COc1ccc(Cl)cc1Cl`, for which the melting point turned out to be 119 °C.

On to `C[Si](C)(C)N([Si](C)(C)C)[Si](C)(C)C`, for which the melting point is 67 to 69 °C.

The compound `N#Cc1cc(F)cc(Br)c1` gave a melting point of 43 to 46 °C.

For the compound `CN(C)CCc1ccc(O)cc1`, the melting point was found to be 118 °C.

With `CCC(C)(Cl)Cl`, the melting point was -74 °C.

`CC(Nc1ccccn1)=C(C#N)C(=O)c1ccccc1`: the melting point was in the range of 151 to 152 °C.

In turn, `O=[N+]([O-])c1cc2nccnc2cc1[N+](=O)[O-]` showed a melting point of 188 to 191 °C.

Take `Cn1cnc(S(=O)(=O)Cl)c1`: the melting point lay within 85 to 90 °C.

In turn, `Cc1ccc(C)c(OCCCC(C)(C)C(=O)O)c1` displayed a melting point of 61 °C.

For the compound `O=C1c2ccccc2C(=O)N1CCOCCCl`, the melting point is 72 to 73 °C.

For `Cc1nc(-c2ccccc2)sc1C(=O)CBr`, the melting point lay within 117 to 118 °C.

Compound `Cn1nc(C(=O)O)cc1-c1cccs1` returned a melting point of 156 to 158 °C.

`Oc1ccccc1[C@H]1C[C@H](c2ccccc2)Sc2ccccc2N1` came in with a melting point of 89.8 °C.

For the compound `Cc1nc2ccccc2c2c1C(=O)NC2=O`, the melting point lay within 255 to 256 °C.

Compound `S=C=Nc1ccc2c(c1)OCCO2` gave a melting point of 64 to 66 °C.

For the compound `O=C(O)c1ccc(Br)c(F)c1`, the melting point is 212 °C.

`Cc1ccc(S(=O)(=O)n2cccc2)cc1`: the melting point came out at 101 °C.

`CCCCCC(=O)OCCCC`: the melting point is -64.3 °C.

On to `ClCc1ccccc1Cn1cncn1`, for which the melting point was in the range of 52 to 57 °C.

As for `CC(C)(C)OC(=O)N1CCCN(c2cccc(O)c2)CC1`, the melting point lay within 143 to 144 °C.

`COc1cc2c3c(c4ccc(OC)c(OC)c4c2cc1OC)CN1CCCC1C3` (centres undefined) displayed a melting point of 220 °C.

Compound `Cc1onc(-c2ccccc2)c1CN` registered a melting point of 66 to 68 °C.

As for `C/C=C/Cl`, the melting point was -99 °C.

The compound `CC(C)c1cc(Cl)nc(N)n1` had a melting point of 100 °C.

By melting point is commonly meant the temperature, or range, at which the solid turns liquid.
